Source: US8076449B2, “Therapeutic agents of colivelin for neurodegenerative diseases” (Tomohiro Chiba, priority 2004, dated 2011)
“Also recorded” adds a separate entry of the source. Ends that are not written are not given here.

Columns and labels:
[1] = tested on: primary cultured cortical neurons treated with Aβ (1-43); assay: Neuronal cell death induced by Aβ (1-43) peptide, WST-8 and calcein cell viability assays; type: cell-based, mouse
Experimental: (ii) Test of Neuronal Cell Death Induced by Aβ (1-43) Peptide
Mouse cortical neurons were primarily cultured on a poly-D-lysine-coated 96-well plate (Sumitomo Bakelite, Akita, Japan) in the absence of serum and the presence of N2 […] according to the previous report (Sudo et al., 2000, Mol. Cell. Neurosci., 16: 708-723). The purity of the neurons by this method was 98% or more. The prepared neurons (5.0×10^4 cells/well, 100 μl of medium/well) were cultured for 72 hours in the presence or absence of varying concentrations (100 aM, 1 fM, 10 fM, 100 fM, 1 pM, 10 pM, 100 pM, 1 nM, 10 nM, or 100 nM) of colivelin or AGA-C8R-HNG17 peptide. Since primary cultured neurons temporarily become fragile during medium replacement, the neurons were treated with 25 μM Aβ as follows: at first, a half volume (50 μl) of the old medium was discarded. Next, 50 μM Aβ and 50 μl of prewarmed fresh medium containing varying concentrations of colivelin or AGA-CBR-HNG17 peptides were added to the culture. Aβ (1-43) was purchased from Peptide Institute. The Aβ peptides used at the concentration of 25 μM for inducing neuronal cell death formed aggregation in the medium during 72-hour cell culture at 37° C. (Hashimoto Y, et al., 2001, J Neurosci 21: 9235-9245).
WST-8 cell viability assay was conducted with Cell Counting Kit-8 according to the previous report (Hashimoto Y, et al, 2001, Proc Natl Acad Sci USA 98: 6336-6341).
Calcein assay was conducted with calcein-AM (Dojindo, Kumamoto, Japan) according to the previous report (Hashimoto Y, et al., 2001, J Neurosci 21: 9235-9245).
These assays were simultaneously performed. After 72 hours of the Aβ treatment, the cells were added to a mixture of 10 μl of WST-8 solution and 1 μl of 600 μM calcein-AM and cultured at 37° C. for 2 hours in a CO2 incubator to measure a WST-8 absorption at O.D. 450. To decrease background, the medium was replaced by phosphate-buffered saline, followed by the measurement of calcein-specific fluorescence (excitation: 485 nm, emission: 535 nm) by fluorescence microcopy or with a spectrofluorometer (Wallac 1420 ARVOsx Multi Label Counter; Perkin Elmer, Wellesley, Mass., USA).

[2] = tested on: F11 cells transformed with M146L-PS1; assay: M146L-PS1-induced neuronal cell death in the presence of ADNF, Trypan blue exclusion assay; type: cell-based, rat/mouse hybrid; details: for concentration completely suppressing M146L-PS1-induced cell death in the presence of ADNF: in the presence of 100 nM ADNF, 72 hours
Experimental: The protective effect of colivelin and ADNF used together against neuronal cell death induced by M146L-PS1 was examined. F11 cells were transformed with M146L-PS1 in the presence or absence of […] and treated with varying concentrations (100 aM, 1 fM, 10 fM, 100 fM, 1 pM, 10 pM, 100 pM, 1 nM, 10 nM, or 100 nM) of colivelin or AGA-C8R-HNG17.
After 72 hours of the transformation, cell mortality was measured by Trypan blue exclusion assay (FIG. 4). Approximately 50% of the neuronal cells died after the transformation with mutant PS1 gene, whereas only 10% of the untreated or empty vector-transformed cells died. […] When the M146L-PS1-transformed neuronal cells in the presence of 100 nM ADNF were treated with 10 pM colivelin, the neuronal cells died at a rate equal to that of the untreated (No) or empty vector (vec)-transformed cells.

G93A-SOD1 Tg mice = assay: In vivo effect on ALS mice: onset, survival, rotarod (Example 5); parameters: species or system mouse
Experimental: Mice treated with a control (n=16), ADNF (n=15), AGA-C8R-HNG17 (n=14), or colivelin (n=13) were compared by the Kaplan-Meier life test. In addition, the average day of death was compared (FIG. 8c), wherein statistical analysis was conducted by one-way ANOVA, followed by Fischer's PLSD test (**p<0.01). The motor function was evaluated by a rotarod test (FIG. 8d). Mice icy-administered with a control (n=13), ADNF (n=14), AGA-C8R-HNG17 (n=14), or colivelin (n=12) were placed onto a rotating rod at a speed of 5 rpm and observed over max 420 seconds, wherein statistical analysis was conducted by repeatedly measured ANOVA and Fischer's PLSD test.
Cannulas were fixed under aseptic conditions to the left lateral ventricles of G93A-SOD1 Tg mice (ALS model mice, 70-day-old). Colivelin ([…] in 3 μl of saline per two days) was icy-injected through the cannulas to compare its protective effect with those of the same amount of ADNF and AGA-C8R-HNG17 (FIG. 8).
The 1-onset (FIG. 8a) and survival (FIG. 8b) of mice treated with a control (n=16), ADNF (n=15), AGA-C8R-HNG17 (n=14), or colivelin (n=13) were compared by the Kaplan-Meier life test. As a result, the colivelin-treated group completely delayed ALS onset up to approximately 114 days, as compared with the ADNF-treated group (approximately 106 days) and the AGA-C8R-HNG17-treated group (approximately 108 days). Regarding survival as well, the colivelin-treated group prolonged the life span of 100% of the mice up to approximately 145 days, as compared with the ADNF-treated group (approximately 133 days) and the AGA-CBR-HNG17-treated group (approximately 138 days). Average age at death was longest in the colivelin-treated mice and was approximately 153 days (FIG. 8c).
Additionally, the motor function was evaluated by the rotarod test (FIG. 8d). Mice treated with a control (n=13), ADNF (n=14), AGA-C8R-HNG17 (n=14), or colivelin (n=12) were placed onto a rotating rod at a speed of 5 rpm and observed over max 420 seconds, wherein statistical analysis was conducted by ANOVA and Fischer's PLSD test.

[3] = 10 μmol in 3 μl of saline per two days, icv
[4] = Aβ (1-43)-induced neuronal cell death

Sequence | concentration achieving complete protection ([1]; 25 μM Aβ (1-43), 72 hours) | EC50 ([1]; 25 μM Aβ (1-43), 72 hours, WST-8, read-out: concentration at which half of the neurons were rescued) | concentration completely suppressing M146L-PS1-induced cell death in the presence of ADNF [2] | ALS onset completely delayed up to (Kaplan-Meier) (G93A-SOD1 Tg mice; [3]) | life span of 100% of the mice prolonged up to (Kaplan-Meier survival) (G93A-SOD1 Tg mice; [3]) | potency relative to AGA-C8R-HNG17 [1, 4] | potency relative to HNG [1, 4] | protective activity at high concentration ([1]; at 100 nM) | activity level with 100 nM ADNF relative to that without ADNF ([2]; M146L-PS1, 10 pM with ADNF versus without) | average age at death (G93A-SOD1 Tg mice; [3]) | motor function by rotarod test (G93A-SOD1 Tg mice; 5 rpm, max 420 seconds, icv treatment) | concentration at or over which protective activity attenuated ([1]; Aβ (1-43) toxicity) | effect of ADNF itself on cell death ([2]; 100 nM ADNF alone)
PAGASRLLLLTGEIDLP [AGA-C8R-HNG17, Pro-Ala-Gly-Ala-Ser-Arg-Leu-Leu-Leu-Leu-Thr-Gly-Glu-Ile-Asp-Leu-Pro, reference compound] | 10000 fM | 1 pM | 10 pM | approximately 108 days | approximately 138 days |  |  |  |  |  |  |  | 
SALLRSIPAPAGASRLLLLTGEIDLP [colivelin] | 100 fM |  | 10 pM | approximately 114 days | approximately 145 days | 100 fold | 100,000 fold | did not disappear | 1/100 | approximately 153 days | ameliorated most; also recorded: significantly better |  | 
SALLRSIPA [ADNF, reference compound] | 100 fM |  |  | approximately 106 days | approximately 133 days |  |  |  |  |  |  | ≥ 1 nM | Neither general cell death nor M146L-PS1-induced neuronal cell death was affected
